According to US20160311791A1, “NOVEL TRICYCLIC CALCIUM SENSING RECEPTOR ANTOGONISTS FOR THE TREATMENT OF OSTEOPOSOSIS” (MERCK SHARP & DOHME CORP., priority 2013, published 2016):
Read-outs that look alike come from different tables or passages of the source.

Legend:
[1] = Pharmacokinetic evaluation in rats; type: in vivo, rat; details: for clearance / Cmax / bioavailability / half-life: rat, plasma, dose and route not given; for clearance: read-out: Clp (plasma clearance); for Cmax: read-out: Cmax (maximum observed plasma concentration); for bioavailability: read-out: F % (bioavailability); for half-life: read-out: t1/2 (plasma half-life) (converted)
human CaSR = target: T1, human CaSR (Homo sapiens, UniProt P41180); assay: CaSR FLIPR assay (calcilytic activity); type: cell-based; parameters: expressed in transfected cells
T1 sequence (P41180 20-1078): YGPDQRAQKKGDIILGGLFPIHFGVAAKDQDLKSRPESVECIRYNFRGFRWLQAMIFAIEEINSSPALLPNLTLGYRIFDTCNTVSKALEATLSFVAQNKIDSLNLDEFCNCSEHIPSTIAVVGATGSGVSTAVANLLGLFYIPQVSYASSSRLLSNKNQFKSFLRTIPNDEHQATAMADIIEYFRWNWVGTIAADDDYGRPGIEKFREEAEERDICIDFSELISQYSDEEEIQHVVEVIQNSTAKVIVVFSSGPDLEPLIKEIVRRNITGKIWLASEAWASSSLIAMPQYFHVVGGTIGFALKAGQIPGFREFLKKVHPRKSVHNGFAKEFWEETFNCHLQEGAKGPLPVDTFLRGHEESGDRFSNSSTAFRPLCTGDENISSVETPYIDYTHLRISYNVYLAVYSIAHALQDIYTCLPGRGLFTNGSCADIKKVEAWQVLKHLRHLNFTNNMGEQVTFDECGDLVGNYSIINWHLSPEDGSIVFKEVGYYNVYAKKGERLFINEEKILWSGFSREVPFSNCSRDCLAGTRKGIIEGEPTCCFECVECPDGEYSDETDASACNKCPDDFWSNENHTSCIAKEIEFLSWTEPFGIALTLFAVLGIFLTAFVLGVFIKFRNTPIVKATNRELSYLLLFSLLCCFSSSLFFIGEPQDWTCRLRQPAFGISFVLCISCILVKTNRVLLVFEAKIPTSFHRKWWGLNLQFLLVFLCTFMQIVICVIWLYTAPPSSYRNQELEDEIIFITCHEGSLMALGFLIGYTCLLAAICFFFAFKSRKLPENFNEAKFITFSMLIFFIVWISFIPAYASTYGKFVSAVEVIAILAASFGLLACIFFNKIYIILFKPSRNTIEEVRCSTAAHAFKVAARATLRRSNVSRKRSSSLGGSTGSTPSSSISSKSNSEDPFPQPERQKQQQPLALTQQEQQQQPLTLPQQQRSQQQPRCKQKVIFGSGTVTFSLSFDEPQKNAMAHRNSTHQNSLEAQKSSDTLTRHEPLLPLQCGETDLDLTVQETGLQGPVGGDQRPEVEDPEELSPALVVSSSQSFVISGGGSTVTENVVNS
Procedure, shortened: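 Calcium flux in HEK293 cells stably expressing human CaSR, loaded with Calcium 4 dye for 1 h at 37° C, read on FLIPR. Compounds in 0.5% DMSO (10-point, 3-fold series) added first, then CaCl2 at 1 mM final. Buffer: 20 mM HEPES pH 7.4, HBSS, 0.4 mM CaCl2, Mg salts.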

[2] = HEK293 cells stably expressing human recombinant CaSR, 1 mM CaCl2 agonist, Tables 1-24, read-out: FLIPR ASSAY IC50
[3] = summary table, read-out: FLIPR CaSR (IC50)

SMILES	half-lives in rats [1]	tmax [1]	clearance [1] [mL/min/kg]	Cmax [1] [nM]	bioavailability [1] [%]	half-life [1] [h]	IC50 (human CaSR; [2]) [nM]	IC50 (human CaSR; [3]) [nM]
C[C@@H](OC[C@H](O)CNC(C)(C)Cc1ccc2ccccc2c1)c1cccc2c1O[C@@H]1[C@@H](C(=O)O)[C@H]21 [Example 1-1]	short half-lives	less than an hour	11	2400	24	1.7	26	22
C[C@@H](OC[C@H](O)CNC(C)(C)Cc1ccc2ccccc2c1)c1cccc2c1[C@@H]1[C@H](O2)[C@H]1C(=O)O [Example 5-1]	short half-lives	less than an hour	52.5	690	7	1.3	9	9
CSc1ccc(CC(C)(C)NC[C@@H](O)CO[C@H](C)c2ccc(C)c3c2C2[C@H](O3)[C@H]2C(=O)O)cc1F (stereo partly drawn) [Example 8-24]	short half-lives	less than an hour	40	160	7	1.8	21	20
